Measurements reported in patent US5034380A, “Alkoxymethylidene epipodophyllotoxin glucosides” (Bristol-Myers Squibb Company, priority 1989, dated 1991).
In brackets after ≈: the same amount, converted by molar mass.

Key:
[1] = system: Moser human colon carcinoma; assay: in vitro cytotoxicity, Moser human colon carcinoma; format: cell-based; details: 72 hours, neutral red
Description: (§1) Representative compounds of the present invention were also tested in in vitro cytotoxicity assays against four tumor cell lines. These cell lines were grown and maintained at 37° C. under a humidified atmosphere in a 5% CO2 incubator:
Moser human colon carcinoma in Eagle's MEM medium supplemented with FCS (10 %);
(§2) In experiments using the B16-F10 and Moser cell lines, exponentially growing cells were harvested, counted and suspended in the culture medium at a concentration of 1.5×10^4 and 3×10^4 cells/ml, respectively. Twenty-four hours after planting cell suspension (180 μl) into wells of a 96-well microtiter plate, test materials (20 μl) were added to the wells and the plates were incubated for 72 hours. Cytotoxicity against the tumor cells was colorimetrically determined at 540 nm after staining viable cells with neutral red solution. For the K562 and K562/ADM cell lines, 900 μl of the cell suspension (8×10^4 cells/ml) was incubated with test materials (100 μl) at 37° C., 5% CO2 for 48 hours in a 24-well tissue culture plate. Cytotoxicity was determined by counting the number of cells using a cell counter.

[2] = system: K562/ADM, an adriamycin-resistant subline; assay: in vitro cytotoxicity, K562/ADM adriamycin-resistant subline; format: cell-based; details: Homo sapiens, 48 hours, cell counter
Description: as §1
(§3) K562 human myelogenous leukemia and K562/ADM, an adriamycin-resistant subline which was kindly provided by Dr. Takashi Tsuruo (University of Tokyo) in RPMI 1640 medium (Nissui) supplemented with FCS (10 %), penicillin (100 U/ml) and streptomycin (100 μg/ml).
as §2

[3] = system: murine transplantable P388 leukemia; assay: in vivo antitumor activity against P388 leukemia in mice (single ip dose, median survival time); set-up: species or system murine (female CDF1 mice); details: Q1D × 1, ip; for T/C % of MST: day 1
Description: Representative compounds of the present invention were evaluated for antitumor activity against murine transplantable P388 leukemia. Female CDF1 mice were inoculated intraperitoneally with approximately 10^6 P388 leukemic cells (day 0). […] The percent increase of median survival time (MST) of treated animals over that of untreated control animals was determined and reported as % T/C. Compounds showing % T/C values of 125 or greater are considered to have significant antitumor activity.

B16-F10 murine melanoma = assay: in vitro cytotoxicity, B16-F10 murine melanoma; format: cell-based; details: Mus musculus; B16-F10, 72 hours, neutral red
Description: as §1
B16-F10 murine melanoma in Eagle's MEM medium (Nissui) containing kanamycin (60 μg/ml) and supplemented with heat-inactivated fetal calf serum (FCS, 10 %) and non-essential amino acids (0.6 %);
as §2

[4] = system: K562 human myelogenous leukemia; assay: in vitro cytotoxicity, K562 human myelogenous leukemia; format: cell-based; details: K562, 48 hours, cell counter
Description: as §1, §3, §2

## CCO[C@@H]1OC[C@H]2O[C@@H](O[C@@H]3c4cc5c(cc4[C@@H](c4cc(OC)c(O)c(OC)c4)[C@H]4C(=O)OC[C@@H]43)OCO5)[C@H](O)[C@@H](O)[C@@H]2O1 [Compound 2b, 4'-Demethyl-4-O-(4,6-O-α-Ethoxymethylidene-α-D-Glucopyranosyl)Epipodophyllotoxin]
[1]
  IC50: 2.2 µg/mL (≈ 3.56 µM)
[2]
  IC50: > 50 µg/mL
[3]; 0.1 mg/kg
  T/C % of MST: 114%
[3]; 0.3 mg/kg
  T/C % of MST: 114%
[3]; 1 mg/kg
  T/C % of MST: 119%
[3]; 3 mg/kg
  T/C % of MST: 138%
[3]; 10 mg/kg
  T/C % of MST: 143%
[3]; 30 mg/kg
  T/C % of MST: 167%
[3]; 60 mg/kg
  T/C % of MST: 200%
[3]; 120 mg/kg
  Number of survivors/tested on day 50: 1/4
  T/C % of MST: 219%
B16-F10 murine melanoma
  IC50: 0.54 µg/mL (≈ 0.873 µM)
[4]
  IC50: 0.18 µg/mL (≈ 0.291 µM)

## COc1cc([C@@H]2c3cc4c(cc3[C@@H](O[C@@H]3O[C@@H]5CO[C@@H](C)O[C@H]5[C@H](O)[C@H]3O)[C@H]3COC(=O)[C@H]23)OCO4)cc(OC)c1O [Etoposide, reference compound]
[3]; 0.1 mg/kg
  T/C % of MST: 120%
[3]; 0.3 mg/kg
  T/C % of MST: 130%
[3]; 1 mg/kg
  T/C % of MST: 136%
[3]; 3 mg/kg
  T/C % of MST: 143%
[3]; 10 mg/kg
  T/C % of MST: 163%
[3]; 30 mg/kg
  T/C % of MST: 185%
[3]; 60 mg/kg
  T/C % of MST: 212%
[3]; 120 mg/kg
  T/C % of MST: 288%

## COc1cc([C@@H]2c3cc4c(cc3[C@@H](O[C@@H]3O[C@@H]5CO[C@H](OC)O[C@H]5[C@H](O)[C@H]3O)[C@H]3COC(=O)[C@H]23)OCO4)cc(OC)c1O [Compound 1a, 4'-Demethyl-4-O-(4,6-O-β-Methoxymethylidene-β-D-Glucopyranosyl)Epipodophyllotoxin]
[3]; 0.1 mg/kg
  T/C % of MST: 115%
[3]; 0.3 mg/kg
  T/C % of MST: 132%
[3]; 1 mg/kg
  T/C % of MST: 137%
[3]; 3 mg/kg
  T/C % of MST: 142%
[3]; 10 mg/kg
  T/C % of MST: 149%
[3]; 30 mg/kg
  T/C % of MST: 166%
[3]; 60 mg/kg
  T/C % of MST: 195%
[3]; 120 mg/kg
  T/C % of MST: 248%
B16-F10 murine melanoma
  IC50: 0.094 µg/mL (≈ 0.155 µM)

## COc1cc([C@@H]2c3cc4c(cc3[C@@H](O[C@@H]3O[C@@H]5CO[C@@H](OC)O[C@H]5[C@H](O)[C@H]3O)[C@H]3COC(=O)[C@H]23)OCO4)cc(OC)c1O [Compound 1b, 4'-Demethyl-4-O-(4,6-O-α-Methoxymethylidene-β-D-Glucopyranosyl)EpipodophYllotoxin]
[1]
  IC50: 3.4 µg/mL (≈ 5.62 µM)
[3]; 0.1 mg/kg
  T/C % of MST: 110%
[3]; 0.3 mg/kg
  T/C % of MST: 120%
[3]; 1 mg/kg
  T/C % of MST: 130%
[3]; 3 mg/kg
  T/C % of MST: 145%
[3]; 10 mg/kg
  T/C % of MST: 165%
[3]; 30 mg/kg
  T/C % of MST: 180%
B16-F10 murine melanoma
  IC50: 0.27 µg/mL (≈ 0.447 µM)

## CCOC1(OCC)OC[C@H]2O[C@@H](O[C@@H]3c4cc5c(cc4[C@@H](c4cc(OC)c(O)c(OC)c4)[C@H]4C(=O)OC[C@@H]43)OCO5)[C@H](O)[C@@H](O)[C@@H]2O1 [Compound 4, 4'-Demethyl-4-O-(4,6-Diethoxymethylidene-β-D-Glucopvranosyl)Epipodophyllotoxin]
[1]
  IC50: 3 µg/mL (≈ 4.53 µM)
[2]
  IC50: 32 µg/mL (≈ 48.3 µM)
[3]; 0.1 mg/kg
  T/C % of MST: 100%
[3]; 0.3 mg/kg
  T/C % of MST: 109%
[3]; 1 mg/kg
  T/C % of MST: 127%
[3]; 3 mg/kg
  T/C % of MST: 132%
[3]; 10 mg/kg
  T/C % of MST: 136%
[3]; 30 mg/kg
  T/C % of MST: 145%
[3]; 60 mg/kg
  T/C % of MST: 150%
[3]; 120 mg/kg
  T/C % of MST: 182%
B16-F10 murine melanoma
  IC50: 7.3 µg/mL (≈ 11 µM)
[4]
  IC50: 0.082 µg/mL (≈ 0.124 µM)

## COc1cc([C@@H]2c3cc4c(cc3[C@@H](O[C@@H]3O[C@@H]5COC(OC)(OC)O[C@H]5[C@H](O)[C@H]3O)[C@H]3COC(=O)[C@H]23)OCO4)cc(OC)c1O [Compound 3, 4'-Demethyl-4-O-(4,6-O-Dimethoxymethylidene-β-D-Glucopyranosyl)Epipodophyllotoxin]
[1]
  IC50: 3.3 µg/mL (≈ 5.2 µM)
[3]; 0.1 mg/kg
  T/C % of MST: 125%
[3]; 0.3 mg/kg
  T/C % of MST: 135%
[3]; 1 mg/kg
  T/C % of MST: 135%
[3]; 3 mg/kg
  T/C % of MST: 140%
[3]; 10 mg/kg
  T/C % of MST: 170%
[3]; 30 mg/kg
  T/C % of MST: 190%
[3]; 60 mg/kg
  T/C % of MST: 170%
[3]; 120 mg/kg
  Number of survivors/tested on day 50: 1/4
  T/C % of MST: 210%
B16-F10 murine melanoma
  IC50: 2.7 µg/mL (≈ 4.25 µM)

## CCO[C@H]1OC[C@H]2O[C@@H](O[C@@H]3c4cc5c(cc4[C@@H](c4cc(OC)c(O)c(OC)c4)[C@H]4C(=O)OC[C@@H]43)OCO5)[C@H](O)[C@@H](O)[C@@H]2O1 [Compound 2a, 4'-Demethyl-4-O-(4,6-O-β-Ethoxymethylidene-β-D-Glucopyranosyl)Epipodophyllotoxin]
[1]
  IC50: 1.7 µg/mL (≈ 2.75 µM)
[2]
  IC50: > 50 µg/mL
[3]; 0.1 mg/kg
  T/C % of MST: 114%
[3]; 0.3 mg/kg
  T/C % of MST: 119%
[3]; 1 mg/kg
  T/C % of MST: 124%
[3]; 3 mg/kg
  T/C % of MST: 133%
[3]; 10 mg/kg
  T/C % of MST: 148%
[3]; 30 mg/kg
  T/C % of MST: 171%
[3]; 60 mg/kg
  T/C % of MST: 181%
[3]; 120 mg/kg
  T/C % of MST: 214%
B16-F10 murine melanoma
  IC50: 0.11 µg/mL (≈ 0.178 µM)
[4]
  IC50: 0.065 µg/mL (≈ 0.105 µM)
